Experiment in all cases: relative IC50 (inflection point of fitted viability curve, relative to fitted max inhibition); higher = less sensitive
Details in all cases: 72 h

One test has as its system SNK-6 (IL-2 2.5 ng/mL). How it is done:
(§1)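 Drug sensitivity and resistance testing: 5 concentrations over a 10,000-fold range, 72 h at 37 °C, viability by CellTiter-Glo normalised to DMSO and benzethonium chloride controls. IC50 is the inflection point of a logistic fit (min fixed at 0, max fitted), so it is relative to the fitted maximal inhibition. Kept only where fitted max inhibition is at least 50%.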

The next test concerns NK-92 (IL-2 2.5 ng/mL). How it is done: as §1
Another test deals with DERL-7 (IL-2 2.5 ng/mL). As to the method:
as §1

In another test the test system is NKL (IL-2 2.5 ng/mL). As to the method: as §1
The subject of the next test is NK-YS (IL-2 2.5 ng/mL). As to the method:
as §1

For another test, the system named is KHYG-1 (IL-2 2.5 ng/mL). How it is done:
as §1

In another test the test system is KAI3 (IL-2 2.5 ng/mL). How it is done: as §1
The test system of a further test is IMC-1 (IL-2 20 ng/mL). How it is done: as §1

Consider 16 compounds from the supplement of paper PMC5908809.

Molecules are shown by their SMILES.

Broadly, the relative IC50 is the concentration halfway between the upper and lower plateau of the fitted curve.

On to `CC1(C)CNc2cc(NC(=O)c3cccnc3NCc3ccncc3)ccc21` [Motesanib], for which the “relative IC50” value in the test with SNK-6 (IL-2 2.5 ng/mL) is greater than 10000 nM.
For `CCC(C)n1ncn(-c2ccc(N3CCN(c4ccc(OCC5COC(Cn6cncn6)(c6ccc(Cl)cc6Cl)O5)cc4)CC3)cc2)c1=O` (stereo unspecified) [Itraconazole], the “relative IC50” value with NK-92 (IL-2 2.5 ng/mL) is 572 nM; in the test on DERL-7 (IL-2 2.5 ng/mL), 1160 nM; with NKL (IL-2 2.5 ng/mL), 1770 nM; in the test with NK-YS (IL-2 2.5 ng/mL), 1080 nM; with KHYG-1 (IL-2 2.5 ng/mL), 1300 nM; in the test on SNK-6 (IL-2 2.5 ng/mL), 503 nM. For the same compound, the “relative IC50” value in the test with KAI3 (IL-2 2.5 ng/mL) was 1030 nM.
Regarding `Nc1nc(N)c2nc(-c3cccc(O)c3)c(-c3cccc(O)c3)nc2n1` [TG100-115], the “relative IC50” value with SNK-6 (IL-2 2.5 ng/mL) stood at 132 nM.
Take `CC[C@H](Nc1ncnc2[nH]cnc12)c1nc2cccc(F)c2c(=O)n1-c1ccccc1` [Idelalisib]: the figures for the “relative IC50” value with NK-92 (IL-2 2.5 ng/mL), with DERL-7 (IL-2 2.5 ng/mL) and with SNK-6 (IL-2 2.5 ng/mL) were 31.7 nM, 675 nM and 891 nM, respectively.
In the case of `Nc1ncn([C@H]2C[C@H](O)[C@@H](CO)O2)c(=O)n1` [Decitabine], the “relative IC50” value in the test on NK-92 (IL-2 2.5 ng/mL) is 392 nM; in the test with DERL-7 (IL-2 2.5 ng/mL), 436 nM; in the test on NK-YS (IL-2 2.5 ng/mL), 474 nM; with KHYG-1 (IL-2 2.5 ng/mL), 678 nM; in the test with SNK-6 (IL-2 2.5 ng/mL), 31.8 nM; in the test on KAI3 (IL-2 2.5 ng/mL) it was 26.9 nM.
As to `C[C@]1(O)C[C@@H](c2nc(-c3ccc4ccc(-c5ccccc5)nc4c3)c3c(N)nccn32)C1` [Linsitinib], the “relative IC50” value with IMC-1 (IL-2 20 ng/mL) is greater than 10000 nM.
In the case of `O=C(Nc1cccc(C(F)(F)F)c1)Nc1cc(S(=O)(=O)NC2CC2)ccc1-c1ccsc1` [AGI-6780], in the test on NK-92 (IL-2 2.5 ng/mL), the “relative IC50” value was 1390 nM.
With `Cn1cnc2c(F)c(Nc3ccc(Br)cc3F)c(C(=O)NOCCO)cc21` [Binimetinib], the “relative IC50” value in the test with NKL (IL-2 2.5 ng/mL) is 19.6 nM; in the test on SNK-6 (IL-2 2.5 ng/mL), greater than 1000 nM.
For `CS(=O)(=O)c1ccc(-c2cnc(N)c(C(=O)Nc3ccccc3)n2)cc1` [VE-821], the “relative IC50” value with DERL-7 (IL-2 2.5 ng/mL) was found to be 1540 nM; in the test on IMC-1 (IL-2 20 ng/mL), 2660 nM; in the test on KHYG-1 (IL-2 2.5 ng/mL), 1550 nM; with SNK-6 (IL-2 2.5 ng/mL), 795 nM; in the test with KAI3 (IL-2 2.5 ng/mL), 332 nM.
As for `Cn1cc(-c2cnn3c(N)c(Br)c([C@@H]4CCCNC4)nc23)cn1` [MK-8776], the “relative IC50” value worked out at 750 nM with NK-92 (IL-2 2.5 ng/mL); 539 nM with DERL-7 (IL-2 2.5 ng/mL); 372 nM with NKL (IL-2 2.5 ng/mL); 668 nM in the test with NK-YS (IL-2 2.5 ng/mL); 311 nM in the test with KHYG-1 (IL-2 2.5 ng/mL); 337 nM in the test with KAI3 (IL-2 2.5 ng/mL).
Take `CCn1cc(-c2ccnc3[nH]c(-c4cccc(CN(C)C)c4)cc23)c(-c2ccc(NC(=O)N(C)C)cc2)n1`: the “relative IC50” value with DERL-7 (IL-2 2.5 ng/mL) amounted to 17.6 nM; in the test on IMC-1 (IL-2 20 ng/mL), 158 nM; in the test with NK-YS (IL-2 2.5 ng/mL), 12.3 nM; in the test with KHYG-1 (IL-2 2.5 ng/mL), 39.7 nM; in the test with SNK-6 (IL-2 2.5 ng/mL) it was 4.21 nM.
`CO[C@H]1C[C@@H]2CC[C@@H](C)[C@@](O)(O2)C(=O)C(=O)N2CCCC[C@H]2C(=O)O[C@H]([C@H](C)C[C@@H]2CC[C@@H](OP(C)(C)=O)[C@H](OC)C2)CC(=O)[C@H](C)/C=C(\C)[C@@H](O)[C@@H](OC)C(=O)[C@H](C)C[C@H](C)/C=C/C=C/C=C/1C` [Ridaforolimus]: the “relative IC50” value is 1.04 nM with DERL-7 (IL-2 2.5 ng/mL); 0.18 nM in the test on NKL (IL-2 2.5 ng/mL); greater than 100 nM in the test on IMC-1 (IL-2 20 ng/mL); 0.4 nM in the test on NK-YS (IL-2 2.5 ng/mL); 9.75 nM with KHYG-1 (IL-2 2.5 ng/mL); 0.53 nM with SNK-6 (IL-2 2.5 ng/mL).
Take `CC(C)(C)c1cc(NC(=O)Nc2ccc(-c3cn4c(n3)sc3cc(OCCN5CCOCC5)ccc34)cc2)no1` [Quizartinib]: the results for the “relative IC50” value in the test with IMC-1 (IL-2 20 ng/mL), in the test with KHYG-1 (IL-2 2.5 ng/mL) and in the test on KAI3 (IL-2 2.5 ng/mL) were greater than 1000 nM, 233 nM and 165 nM, respectively.
With `Nc1nccc(-c2c(-c3ccc(F)cc3)ncn2C2CCCCC2)n1`, the “relative IC50” value was determined as 2170 nM in the test with SNK-6 (IL-2 2.5 ng/mL) and 39.1 nM in the test on KAI3 (IL-2 2.5 ng/mL).
With `C=CC(=O)N1CCC[C@@H](n2nc(-c3ccc(Oc4ccccc4)cc3)c3c(N)ncnc32)C1` [Ibrutinib], in the test on IMC-1 (IL-2 20 ng/mL), the “relative IC50” value is greater than 1000 nM.
Consider `CS(=O)(=O)c1ccc(C(=O)Nc2ccc(Cl)c(-c3ccccn3)c2)c(Cl)c1` [Vismodegib], for which, in the test with NK-92 (IL-2 2.5 ng/mL), the “relative IC50” value was found to be 1400 nM.
